Legend:
[1] = system: Beet Armyworm (Spodoptera exigua); experiment: Bioassays on BAW, 128-well diet tray assay; format: in vivo; conditions: Spodoptera exigua, 168 h; 50 μg/cm^2 on artificial diet, second instar larvae, five to seven days; read-out: BAW % Control (or Mortality) rating
Description: Bioassays on BAW were conducted using a 128-well diet tray assay. One to five second instar BAW larvae were placed in each well (3 mL) of the diet tray that had been previously filled with 1 mL of artificial diet to which 50 μg/cm^2 of the test molecule (dissolved in 50 μL of 90:10 acetone-water mixture) had been applied (to each of eight wells) and then allowed to dry. Trays were covered with a clear self-adhesive cover and held at 25° C., 14:10 light-dark for five to seven days. Percent mortality was recorded for the larvae in each well; activity in the eight wells was then averaged. The results are indicated in the table entitled “Table ABC: Biological Results” (See Table Section).
(§1) Bioassays on BAW and CL were conducted according to the procedures outlined in Example A: Bioassays on Beet Armyworm (“BAW”) and Cabbage Looper (“CL”) using the indicated concentrations.

[2] = system: Cabbage Looper (Trichoplusia ni); experiment: Bioassays on CL, 128-well diet tray assay; format: in vivo; conditions: Trichoplusia ni, 168 h; 50 μg/cm^2 on artificial diet, second instar larvae, five to seven days; read-out: CL % Control (or Mortality) rating
Description: Bioassays on CL were conducted using a 128-well diet tray assay.
One to five second instar CL larvae were placed in each well (3 mL) of the diet tray that had been previously filled with 1 mL of artificial diet to which 50 μg/cm^2 of the test molecule (dissolved in 50 μL of 90:10 acetone-water mixture) had been applied (to each of eight wells) and then allowed to dry. Trays were covered with a clear self-adhesive cover and held at 25° C., 14:10 light-dark for five to seven days. Percent mortality was recorded for the larvae in each well; activity in the eight wells was then averaged. The results are indicated in the table entitled “Table ABC: Biological Results” (See Table Section).
as §1

O=C(NCC1(SCC(F)(F)F)COC1)c1ccc(/C=C/C(c2cc(Cl)c(Cl)c(Cl)c2)C(F)(F)F)cc1C(F)(F)F (stereo not drawn) [F83, (E)-4-(4,4,4-Trifluoro-3-(3,4,5-trichlorophenyl)but-1-en-1-yl)-N-((3-((2,2,2-trifluoroethyl)thio)oxetan-3-yl)methyl)-2-(trifluoromethyl)benzamide]
mortality at 50 µg/cm2 [1]: 50 to 100%
mortality at 50 µg/cm2 [2]: 50 to 100%

C[C@H](CSCC(F)(F)F)NC(=O)c1ccc(/C=C/C(c2cc(Cl)c(Cl)c(Cl)c2)C(F)(F)F)cc1 (stereo partly drawn) [FC74, 4-((E)-4,4,4-Trifluoro-3-(3,4,5-trichlorophenyl)but-1-en-1-yl)-N—((R)-1-((2,2,2-trifluoroethyl)thio)propan-2-yl)benzamide]
mortality at 50 µg/cm2 [1]: 50 to 100%
mortality at 50 µg/cm2 [2]: 50 to 100%

CC[C@H](CS(=O)(=O)CC(F)(F)F)NC(=O)c1ccc(/C=C/C(c2cc(Cl)c(Cl)c(Cl)c2)C(F)(F)F)cc1C(F)(F)F (stereo partly drawn) [F17, 4-((E)-4,4,4-Trifluoro-3-(3,4,5-trichlorophenyl)but-1-en-1-yl)-N—((R)-1-((2,2,2-trifluoroethyl)sulfonyl)butan-2-yl)-2-(trifluoromethyl)benzamide]
mortality at 50 µg/cm2 [1]: 50 to 100%
mortality at 50 µg/cm2 [2]: 50 to 100%

CC(C)[S+]([O-])C[C@@H](C)NC(=O)c1ccc(/C=C/C(c2cc(Cl)c(Cl)c(Cl)c2)C(F)(F)F)cc1C(F)(F)F (stereo partly drawn) [F82, N-((2R)-1-(Isopropylsulfinyl)propan-2-yl)-4-((E)-4,4,4-trifluoro-3-(3,4,5-trichlorophenyl)but-1-en-1-yl)-2-(trifluoromethyl)benzamide]
mortality at 50 µg/cm2 [1]: 50 to 100%
mortality at 50 µg/cm2 [2]: 50 to 100%

CCc1cc(/C=C/C(c2cc(Cl)c(Cl)c(Cl)c2)C(F)(F)F)ccc1C(=O)N[C@H](C)C[S+]([O-])CC(F)(F)F (stereo partly drawn) [F55, 2-Ethyl-4-((E)-4,4,4-trifluoro-3-(3,4,5-trichlorophenyl)but-1-en-1-yl)-N-((2R)-1-((2,2,2-trifluoroethyl)sulfinyl)propan-2-yl)benzamide]
mortality at 50 µg/cm2 [1]: 50 to 100%
mortality at 50 µg/cm2 [2]: 50 to 100%

O=C(NCC1([S+]([O-])CC(F)(F)F)COC1)c1ccc(/C=C/C(c2cc(Cl)c(Cl)c(Cl)c2)C(F)(F)F)cc1C(F)(F)F (stereo not drawn) [F107, (E)-4-(4,4,4-Trifluoro-3-(3,4,5-trichlorophenyl)but-1-en-1-yl)-N-((3-((2,2,2-trifluoroethyl)sulfinyl)oxetan-3-yl)methyl)-2-(trifluoromethyl)benzamide]
mortality at 50 µg/cm2 [1]: 50 to 100%
mortality at 50 µg/cm2 [2]: 50 to 100%

C[C@H](CS(=O)(=O)CC(F)(F)F)NC(=O)c1ccc(/C=C/C(c2cc(Cl)c3c(c2)OCO3)C(F)(F)F)cc1C(F)(F)F (stereo partly drawn) [F76, 4-((E)-3-(7-Chlorobenzo[d][1,3]dioxol-5-yl)-4,4,4-trifluorobut-1-en-1-yl)-N—((R)-1-((2,2,2-trifluoroethyl)sulfonyl)propan-2-yl)-2-(trifluoromethyl)benzamide]
mortality at 50 µg/cm2 [1]: 50 to 100%
mortality at 50 µg/cm2 [2]: 50 to 100%

CO/C(=C\C(c1cc(Cl)c(Cl)c(Cl)c1)C(F)(F)F)c1ccc(C(=O)N[C@H](C)CSCC(F)(F)F)c(C(F)(F)F)c1 (stereo partly drawn) [F31, 4-((Z)-4,4,4-Trifluoro-1-methoxy-3-(3,4,5-trichlorophenyl)but-1-en-1-yl)-N—((R)-1-((2,2,2-trifluoroethyl)thio)propan-2-yl)-2-(trifluoromethyl)benzamide]
mortality at 50 µg/cm2 [1]: 50 to 100%
mortality at 50 µg/cm2 [2]: 50 to 100%

C[C@H](C[S+]([O-])CC(F)(F)F)NC(=O)c1ccc(/C=C/C(c2ccc(Cl)c(Cl)c2)C(F)(F)F)cc1Br (stereo partly drawn) [F117, 2-Bromo-4-((E)-3-(3,4-dichlorophenyl)-4,4,4-trifluorobut-1-en-1-yl)-N-((2R)-1-((2,2,2-trifluoroethyl)sulfinyl)propan-2-yl)benzamide]
mortality at 50 µg/cm2 [1]: 50 to 100%
mortality at 50 µg/cm2 [2]: 50 to 100%

C[C@H](CS(=O)(=O)CCF)NC(=O)c1ccc(/C=C/C(c2cc(Cl)c(Cl)c(Cl)c2)C(C)(F)F)cc1C(F)(F)F (stereo partly drawn) [F122, 4-((E)-4,4-Difluoro-3-(3,4,5-trichlorophenyl)pent-1-en-1-yl)-N—((R)-1-((2-fluoroethyl)sulfonyl)propan-2-yl)-2-(trifluoromethyl)benzamide]
mortality at 50 µg/cm2 [1]: 50 to 100%
mortality at 50 µg/cm2 [2]: 50 to 100%

CCO/C(=C/C(c1cc(Cl)c(Cl)c(Cl)c1)C(F)(F)F)c1ccc(C(=O)N[C@H](C)CSCC(F)(F)F)c(C(F)(F)F)c1 (stereo partly drawn) [F33, 4-((E)-1-ethoxy-4,4,4-trifluoro-3-(3,4,5-trichlorophenyl)but-1-en-1-yl)-N—((R)-1-((2,2,2-trifluoroethyl)thio)propan-2-yl)-2-(trifluoromethyl)benzamide]
mortality at 50 µg/cm2 [1]: 50 to 100%
mortality at 50 µg/cm2 [2]: 50 to 100%

C[C@H](CS(=O)(=O)CC(F)(F)F)NC(=O)c1ccc(/C=C/C(c2ccc(F)c(C(F)(F)F)c2)C(C)(F)F)cc1C(F)(F)F (stereo partly drawn) [F135, 4-((E)-4,4-Difluoro-3-(4-fluoro-3-(trifluoromethyl)phenyl)pent-1-en-1-yl)-N—((R)-1-((2,2,2-trifluoroethyl)sulfonyl)propan-2-yl)-2-(trifluoromethyl)benzamide]
mortality at 50 µg/cm2 [1]: 50 to 100%
mortality at 50 µg/cm2 [2]: 50 to 100%

CC[C@H](CS(=O)(=O)CC1CC1(F)F)NC(=O)c1ccc(/C=C/C(c2cc(Cl)c(Cl)c(Cl)c2)C(F)(F)F)cc1Br (stereo partly drawn) [F19, 2-Bromo-N-((2R)-1-(((2,2-difluorocyclopropyl)methyl)sulfonyl)butan-2-yl)-4-((E)-4,4,4-trifluoro-3-(3,4,5-trichlorophenyl)but-1-en-1-yl)benzamide]
mortality at 50 µg/cm2 [1]: 50 to 100%
mortality at 50 µg/cm2 [2]: 50 to 100%

CC(C)(C[S+]([O-])CC(F)(F)F)NC(=O)c1ccc(/C=C/C(c2cc(Cl)c(Cl)c(Cl)c2)C(F)(F)F)cc1C(F)(F)F (stereo not drawn) [F47, (E)-N-(2-Methyl-1-((2,2,2-trifluoroethyl)sulfinyl)propan-2-yl)-4-(4,4,4-trifluoro-3-(3,4,5-trichlorophenyl)but-1-en-1-yl)-2-(trifluoromethyl)benzamide]
mortality at 50 µg/cm2 [1]: 50 to 100%
mortality at 50 µg/cm2 [2]: 50 to 100%

C[C@H](CS(=O)(=O)CC(F)(F)F)NC(=O)c1ccc(/C=C/C(c2cc(Cl)c(Cl)c(Cl)c2)C(C)(F)F)cc1C(F)(F)F (stereo partly drawn) [F84, 4-((E)-4,4-Difluoro-3-(3,4,5-trichlorophenyl)pent-1-en-1-yl)-N—((R)-1-((2,2,2-trifluoroethyl)sulfonyl)propan-2-yl)-2-(trifluoromethyl)benzamide]
mortality at 50 µg/cm2 [1]: 50 to 100%
mortality at 50 µg/cm2 [2]: 50 to 100%

C[C@H](CSCC(F)(F)F)NC(=O)c1ccc(/C=C/C(c2cc(Cl)c(Cl)c(Cl)c2)C(C)(F)F)cc1C(F)(F)F (stereo partly drawn) [F108, 4-((E)-4,4-Difluoro-3-(3,4,5-trichlorophenyl)pent-1-en-1-yl)-N—((R)-1-((2,2,2-trifluoroethyl)thio)propan-2-yl)-2-(trifluoromethyl)benzamide]
mortality at 50 µg/cm2 [1]: 50 to 100%
mortality at 50 µg/cm2 [2]: 50 to 100%

C[C@H](CS(=O)(=O)CC(F)(F)F)NC(=O)c1ccc(/C=C/C(c2cc(F)c(F)c(F)c2)C(C)(F)F)cc1C(F)(F)F (stereo partly drawn) [F136, 4-((E)-4,4-Difluoro-3-(3,4,5-trifluorophenyl)pent-1-en-1-yl)-N—((R)-1-((2,2,2-trifluoroethyl)sulfonyl)propan-2-yl)-2-(trifluoromethyl)benzamide]
mortality at 50 µg/cm2 [1]: 50 to 100%
mortality at 50 µg/cm2 [2]: 50 to 100%

CCO/C(=C\C(c1cc(Cl)c(Cl)c(Cl)c1)C(F)(F)F)c1ccc(C(=O)N[C@H](C)C[S+]([O-])CC(F)(F)F)c(C(F)(F)F)c1 (stereo partly drawn) [F30, 4-((Z)-1-ethoxy-4,4,4-trifluoro-3-(3,4,5-trichlorophenyl)but-1-en-1-yl)-N-((2R)-1-((2,2,2-trifluoroethyl)sulfinyl)propan-2-yl)-2-(trifluoromethyl)benzamide]
mortality at 50 µg/cm2 [1]: 50 to 100%
mortality at 50 µg/cm2 [2]: 50 to 100%

C[C@H](CSCC(F)(F)F)NC(=O)c1ccc(/C=C/C(c2cc(Cl)c(Cl)c(Br)c2)C(F)(F)F)cc1C(F)(F)F (stereo partly drawn) [F116, 4-((E)-3-(3-Bromo-4,5-dichlorophenyl)-4,4,4-trifluorobut-1-en-1-yl)-N—((R)-1-((2,2,2-trifluoroethyl)thio)propan-2-yl)-2-(trifluoromethyl)benzamide]
mortality at 50 µg/cm2 [1]: 50 to 100%
mortality at 50 µg/cm2 [2]: 50 to 100%

O=C(NCCS(=O)(=O)c1ccc(Cl)cc1)c1ccc(/C=C/C(c2cc(Cl)c(Cl)c(Cl)c2)C(F)(F)F)cc1Br (stereo not drawn) [F4, (E)-2-Bromo-N-(2-((4-chlorophenyl)sulfonyl)ethyl)-4-(4,4,4-trifluoro-3-(3,4,5-trichlorophenyl)but-1-en-1-yl)benzamide]
mortality at 50 µg/cm2 [1]: 50 to 100%
mortality at 50 µg/cm2 [2]: 50 to 100%

CC(C)[C@H](C[S+]([O-])CC(F)(F)F)NC(=O)c1ccc(/C=C/C(c2cc(Cl)c(Cl)c(Cl)c2)C(F)(F)F)cc1C(F)(F)F (stereo partly drawn) [F15, N-((2R)-3-methyl-1-((2,2,2-trifluoroethyl)sulfinyl)butan-2-yl)-4-((E)-4,4,4-trifluoro-3-(3,4,5-trichlorophenyl)but-1-en-1-yl)-2-(trifluoromethyl)benzamide]
mortality at 50 µg/cm2 [1]: 50 to 100%
mortality at 50 µg/cm2 [2]: 50 to 100%

Source: patent US20170210723A1, “MOLECULES HAVING PESTICIDAL UTILITY, AND INTERMEDIATES, COMPOSITIONS, AND PROCESSES, RELATED THERETO” (priority 2016, published 2017)
